Laboratory results as given in article PMC11599599, “Synthesis, characterization, molecular docking, pharmacokinetics, and molecular dynamics of new bis-thiazoles based on bis-thiosemicarbazone as anti-coxsackievirus” (Scientific Reports, 2024).

What was measured:
Vero cells = experiment: Cytotoxicity assay on Vero cells (microscopic morphology); assay type: cell-based; design: key to Cytotoxicity on Vero cells (cell sheet affected): -: Safe concentration; + 1, +2, + 3, +4: about 25, 50, 75, 100% of cell sheet was affected respectively; + 1, +2, + 3, +4: about 25, 50, 75, 100% of cell sheet was affected respectively; + 1, +2, + 3, +4: about 25, 50, 75, 100% of cell sheet was affected respectively; + 1, +2, + 3, +4: about 25, 50, 75, 100% of cell sheet was affected respectively; M: masked (color of compounds made cells unseen); details: for Cytotoxicity on Vero cells (cell sheet affected): 24 h, morphological changes; for Safety effect on Vero cells (in words): Table 1, 24 h
Experimental: (§1) Compounds: 10 mg were dissolved in 1 mL (10% DMSO and 90% deionized water), sterilized by 1% antibiotic–antimycotic mixture and stored in −20.
(§2) Cells: Vero cell line was used. The cells were propagated in DMEM medium (Lonza, USA) supplemented with 10% fetal bovine serum (Gibco, USA), 1% antibiotic–antimycotic mixture (Lonza, USA).
Cytotoxic effect of compounds was measured by inoculation different doses of compounds on tested cells then examining them microscopically after 24 h to determine any morphological changes that appeared on cells as a result of being subjected to the compounds[46]. Vero cells were seeded onto 96-well plates, which were then incubated for the whole night. After a 24-hour incubation period at 37 °C in a humidified incubator with 5% CO2, compounds were injected at concentrations of 10, 20, 30, 40, 50, 60, 70, 80, 90, and 100 µg /100 µl. Any morphological changes were monitored under a microscope.

Cox B virus = experiment: Plaque reduction assay against Cox B virus; assay type: cell-based; details: for inhibition at 20 µg/mL / inhibition at 40 µg/mL: Vero
Experimental: as §1, §2
Virus: Cox B virus was propagated and titrated to give final count of 0.9 × 10^5 viral particle/mL.
This test was done according to Tebas et al.[47], In a 12-well plate Vero cells (10^5 cells/mL) were cultivated for 1 day at 37 °C. The Cox B virus was mixed with the safe concentration of the compound and incubated for 1 h at 37 °C before being added to the cells. Following the removal of the growth media, the cells were injected with virus-extract combinations ([…]) and then rinsed with PBS (Phosphate Buffer Saline). Following a one-hour contact period for virus adsorption, the cell monolayer was supplemented with one milliliter of Dulbecco’s Modified Eagles Media (DMEM) containing 2% agarose. The plates were then allowed to solidify and incubated at 37 °C until the development of viral plaques. Formalin (10%) was added for 2 h then plates were stained with crystal violet. Control wells were included where untreated virus was incubated with Vero cells and finally plaques were counted and percentage reduction in plaques formation in comparison to control wells was recorded as following:
% inhibition = (viral count(untreated) - viral count(treated))/viral count(untreated)X100.

melting point | Structure (SMILES) | Cytotoxicity on Vero cells (cell sheet affected) (Vero cells; 10 µg/100µl) | Cytotoxicity on Vero cells (cell sheet affected) (Vero cells; 20 µg/100µl) | Cytotoxicity on Vero cells (cell sheet affected) (Vero cells; 30 µg/100µl) | Cytotoxicity on Vero cells (cell sheet affected) (Vero cells; 40 µg/100µl) | Cytotoxicity on Vero cells (cell sheet affected) (Vero cells; 50 µg/100µl) | Cytotoxicity on Vero cells (cell sheet affected) (Vero cells; 60 µg/100µl) | Cytotoxicity on Vero cells (cell sheet affected) (Vero cells; 70 µg/100µl) | Cytotoxicity on Vero cells (cell sheet affected) (Vero cells; 80 µg/100µl) | Cytotoxicity on Vero cells (cell sheet affected) (Vero cells; 90 µg/100µl) | Cytotoxicity on Vero cells (cell sheet affected) (Vero cells; 100 µg/100µl) | Safety effect on Vero cells (in words) (Vero cells) | Viral count (treated) (Cox B virus; 20 ug/mL) | Viral count (treated) (Cox B virus; 40 ug/mL) | inhibition at 20 µg/mL (Cox B virus) | inhibition at 40 µg/mL (Cox B virus)
 | COc1ccc(OC)c(C=C2/C(=N/Nc3nc(C)c(/N=N/c4ccc(Cl)cc4)s3)c3ccccc3/C2=N\Nc2nc(C)c(/N=N/c3ccc(Cl)cc3)s2)c1 [7c, 2,2’-(((1E,3E)−2-(2,5-dimethoxybenzylidene)−1H-indene-1,3(2H)-diylidene)bis(hydrazin-1-yl-2-ylidene))bis(5-((E)-(4-chlorophenyl)diazenyl)−4-methylthiazole)] | - | - | - | - | - | - | - | - | M | M | dense and coloured that made masking to the cell sheet | 1.07 × 10^7 | 1.6 × 10^7 | 33% | 0%
231 to 233 °C | COc1ccc(OC)c(C=C2C(=NNC(N)=S)c3ccccc3C2=NNC(N)=S)c1 [compound 3, 2,2’-((1E,3Z)−2-((E)−2,5-dimethoxybenzylidene)−1H-indene-1,3(2H)-diylidene)bis-(hydrazine-1-carbothioamide)] | - | - | - | - | - | - | - | - | - | - | higher safety | 1.24 × 10^7 | 0.72 × 10^7 | 22% | 55%
193 to 195 °C | COc1ccc(OC)c(C=C2/C(=N/Nc3nc(-c4ccccc4)cs3)c3ccccc3/C2=N\Nc2nc(-c3ccccc3)cs2)c1 [compound 13, 2,2’-(((1E,3E)−2-(2,5-dimethoxybenzylidene)−1H-indene-1,3(2H)-diylidene)bis(hydrazin-1-yl-2-ylidene))bis(4-phenylthiazole)] | - | - | - | - | - | - | - | - | - | - | higher safety | 1.6 × 10^7 | 1.6 × 10^7 | 0% | 0%
 | CCOC(=O)c1sc(N/N=C2/C(=Cc3cc(OC)ccc3OC)/C(=N/Nc3nc(C)c(C(=O)OCC)s3)c3ccccc32)nc1C [11b, Diethyl 2,2’-(((1E,3E)−2-(2,5-dimethoxybenzylidene)−1H-indene-1,3(2H)-diylidene)bis-(hydrazin-1-yl-2-ylidene))bis(4-methylthiazole-5-carboxylate)] | - | - | - | - | - | M | M | M | M | M | dense and coloured that made masking to the cell sheet | 0.8 × 10^7 | 0.96 × 10^7 | 50% | 40%
 | COc1ccc(OC)c(C=C2/C(=N/Nc3nc(C)c(C(C)=O)s3)c3ccccc3/C2=N\Nc2nc(C)c(C(C)=O)s2)c1 [11a, 1,1’-((((1E,3E)−2-(2,5-dimethoxybenzylidene)−1H-indene-1,3(2H)-diylidene)bis(hydrazin-1-yl-2-ylidene))bis(4-methylthiazole-2,5-diyl))bis(ethan-1-one)] | - | - |  | M | M | M | M | M | M | M | dense and coloured that made masking to the cell sheet | 1.44 × 10^7 | 0.68 × 10^7 | 10% | 57%
198 to 200 °C | COc1ccc(OC)c(C=C2/C(=N/NC3=NC(=O)C(C)S3)c3ccccc3/C2=N\NC2=NC(=O)C(C)S2)c1 (stereo not drawn) [9b, 2,2’-(((1E,3E)−2-(2,5-dimethoxybenzylidene)−1H-indene-1,3(2H)-diylidene)bis(hydrazin-1-yl-2-ylidene))bis(5-methylthiazol-4(5H)-one)] | - | - | - | - | - | - |  |  |  |  | highly toxic at low concentration |  |  |  | 
 | COc1ccc(OC)c(C=C2C(=O)c3ccccc3C2=O)c1 [compound 1, 2-(2,5-dimethoxy-benzylidene)indan-1,3-dione] | - | - | - | - | - | - | - | - | - | - | higher safety | 1.42 × 10^7 | 1.6 × 10^7 | 11% | 0%
 | COc1ccc(OC)c(C=C2/C(=N/Nc3nc(C)cs3)c3ccccc3/C2=N\Nc2nc(C)cs2)c1 [11c, 2,2’-(((1E,3E)−2-(2,5-dimethoxybenzylidene)−1H-indene-1,3(2H)-diylidene)bis(hydrazin-1-yl-2-ylidene))bis(4-methylthiazole)] | - | - | - | - | - | - | - | - | M | M | dense and coloured that made masking to the cell sheet | 0.84 × 10^7 | 0.57 × 10^7 | 47% | 64%
